{"source": "patent US11213608B2", "about": "“Compositions including gelatin nanoparticles and methods of use thereof” (Wake Forest University Health Sciences, priority 2018, dated 2022)", "origin": "cited, not measured here", "test_system": "HepG2 cells", "data": [{"smiles": "Cc1c(C)c2c(c(C)c1O)CCC(C)(COc1ccc(CC3SC(=O)NC3=O)cc1)O2", "note": "(stereo not shown) [TRO, troglitazone]", "values": [{"measurement": "concentration above which toxic effects are commonly reported", "result": "above 100 μM"}]}]}
